In PMC11435058, “Synthesis of New Thiazole-Privileged Chalcones as Tubulin Polymerization Inhibitors with Potential Anticancer Activities” (Pharmaceuticals, 2024):

Key:
MDA-MB-231/ATCC = test: NCI-60 anticancer screen (SRB; single dose and five doses); conditions: Homo sapiens, MDA-MB-231, 48 h, read-out: Growth Percentage
OVCAR-4 = test: as above; conditions: Homo sapiens, OVCAR-4, 48 h, read-out: Growth Percentage
UO-31 = test: as above; conditions: Homo sapiens, UO-31, 48 h, read-out: Growth Percentage
HOP-62 = test: as above; conditions: Homo sapiens, HOP-62, 48 h, read-out: Growth Percentage
M14 = test: as above; conditions: Homo sapiens, M14, 48 h, read-out: Growth Percentage
SNB-75 = test: as above; conditions: Homo sapiens, SNB-75, 48 h, read-out: Growth Percentage
TK-10 = test: as above; conditions: Homo sapiens, TK-10, 48 h, read-out: Growth Percentage
OVCAR-3 = test: cells; conditions: Homo sapiens, OVCAR-3, 48 h, read-out: Growth Percentage
U251 = test: NCI-60 anticancer screen (SRB; single dose and five doses); conditions: Homo sapiens, U-251, 48 h, read-out: Growth Percentage
NCI-H226 = test: as above; conditions: Homo sapiens, NCI-H226, 48 h, read-out: Growth Percentage
BT-549 = test: as above; conditions: Homo sapiens, BT-549, 48 h, read-out: Growth Percentage
SK-MEL-2 = test: as above; conditions: Homo sapiens, SK-MEL-2, 48 h, read-out: Growth Percentage
MALME-3M = test: as above; conditions: Homo sapiens, 48 h, read-out: Growth Percentage
MDA-MB-435 = test: as above; conditions: Homo sapiens, MDA-MB-435, 48 h, read-out: Growth Percentage
RPMI-8226 = test: as above; conditions: Homo sapiens, RPMI-8226, 48 h, read-out: Growth Percentage
CAKI-1 = test: as above; conditions: Homo sapiens, CAKI-1, 48 h, read-out: Growth Percentage
HS 578T = test: as above; conditions: Homo sapiens, 48 h, read-out: Growth Percentage
SK-OV-3 = test: as above; conditions: Homo sapiens, SK-OV-3, 48 h, read-out: Growth Percentage
HCT-15 = test: as above; conditions: Homo sapiens, HCT-15, 48 h, read-out: Growth Percentage
SW-620 = test: as above; conditions: Homo sapiens, SW-620, 48 h, read-out: Growth Percentage
NCI-H522 = test: as above; conditions: Homo sapiens, NCI-H522, 48 h, read-out: Growth Percentage
A549/ATCC = test: as above; conditions: Homo sapiens, A549, 48 h, read-out: Growth Percentage
NCI-H322M = test: as above; conditions: Homo sapiens, 48 h, read-out: Growth Percentage
SR = test: as above; conditions: Homo sapiens, 48 h, read-out: Growth Percentage
SNB-19 = test: cells; conditions: Homo sapiens, SNB-19, 48 h, read-out: Growth Percentage
RXF 393 = test: NCI-60 anticancer screen (SRB; single dose and five doses); conditions: Homo sapiens, RXF 393, 48 h, read-out: Growth Percentage
SF-268 = test: as above; conditions: Homo sapiens, SF-268, 48 h, read-out: Growth Percentage
786-0 = test: as above; conditions: Homo sapiens, 786-0, 48 h, read-out: Growth Percentage
SF-539 = test: as above; conditions: Homo sapiens, SF-539, 48 h, read-out: Growth Percentage

COc1ccc(/C=C/C(=O)c2sc(=S)[nH]c2C)cc1OC [2o, (E)-3-(3,4-Dimethoxyphenyl)-1-(4-Methyl-2-Thioxo-2,3-Dihydrothiazol-5-yl)Prop-2-En-1-One] gave an activity at 10 µM (MDA-MB-231/ATCC) of 58.4%, an activity at 10 µM (OVCAR-4) of 47.6% and an activity at 10 µM (UO-31) of 49.2%. It also gave an activity at 10 µM (HOP-62) of 34.1%, an activity at 10 µM (M14) of 82.2% and an activity at 10 µM (SNB-75) of 58.1%. For the same compound, the activity at 10 µM (TK-10) was 75.4%, the activity at 10 µM (OVCAR-3) was 3.22% and the activity at 10 µM (U251) was 33.7%. For the same compound, the activity at 10 µM (NCI-H226) was 80.5%, the activity at 10 µM (BT-549) was 18.9% and the activity at 10 µM (SK-MEL-2) was 68.6%. The activity at 10 µM (MALME-3M) was 89.6%, the activity at 10 µM (MDA-MB-435) was 38.9% and the activity at 10 µM (RPMI-8226) was 18.6%. The activity at 10 µM (CAKI-1) was 42%, the activity at 10 µM (HS 578T) was 84.7% and the activity at 10 µM (SK-OV-3) was 76.9%. For the same compound, the activity at 10 µM (HCT-15) was 31.3%, the activity at 10 µM (SW-620) was 34.9% and the activity at 10 µM (NCI-H522) was 56.8%. The activity at 10 µM (A549/ATCC) was 64.6%, the activity at 10 µM (NCI-H322M) was 63.4% and the activity at 10 µM (SR) was 32.5%. For the same compound, the activity at 10 µM (SNB-19) was 61.9%, the activity at 10 µM (RXF 393) was 48.1% and the activity at 10 µM (SF-268) was 67.2%. It also gave an activity at 10 µM (786-0) of 60% and an activity at 10 µM (SF-539) of 29.8%.
